Broadly, the melting point is the temperature, or range, at which the solid turns liquid.

On to `CC1CCN(C2CCN(S(=O)(=O)c3ccccc3)CC2)CC1` [compound 5, 4-methyl-1′-(phenylsulfonyl)-1,4′-bipiperidine], for which the melting point lay within 154 to 156 °C. Consider `CC1CCN(C2CCN(S(=O)(=O)c3ccc([N+](=O)[O-])cc3)CC2)CC1` [compound 7, 4-Methyl-1′-((4-nitrophenyl)sulfonyl)-1,4′-bipiperidine], for which the melting point lay in the range of 165 to 168 °C. Turning to `CC1CCN(C2CCN(S(=O)(=O)c3ccc(C#N)cc3)CC2)CC1` [compound 9, 4-((4-Methyl-[1,4′-bipiperidin]-1′-yl)sulfonyl)benzonitrile], the melting point fell in the range of 184 to 186 °C.

The molecule `Cc1ccc(S(=O)(=O)N2CCC(N3CCC(C)CC3)CC2)cc1` [compound 11, 4-Methyl-1′-tosyl-1,4′-bipiperidine] gave a melting point of 139 to 142 °C. As for `CCc1ccc(S(=O)(=O)N2CCC(N3CCC(C)CC3)CC2)cc1` [compound 12, 1′-((4-Ethylphenyl)sulfonyl)-4-methyl-1,4′-bipiperidine], the figure is 108 to 110 °C.

The molecule `CC1CCN(C2CCN(S(=O)(=O)c3ccc(C(C)C)cc3)CC2)CC1` [compound 13, 1′-((4-Isopropylphenyl)sulfonyl)-4-methyl-1,4′-bipiperidine] had a melting point of 144 to 147 °C.

`CC1CCN(C2CCN(S(=O)(=O)c3ccc(C(C)(C)C)cc3)CC2)CC1` [compound 14, 1′-((4-(Tert-butyl)phenyl)sulfonyl)-4-methyl-1,4′-bipiperidine] had a melting point of 173 to 176 °C. Molecule `CC1CCN(C2CCN(S(=O)(=O)c3ccc(C(F)(F)F)cc3)CC2)CC1` [compound 15, 4-Methyl-1′-((4-(trifluoromethyl)phenyl)sulfonyl)-1,4′-bipiperidine] had a melting point of 175 to 178 °C. As for `CC1CCN(C2CCN(S(=O)(=O)c3ccc(Br)cc3)CC2)CC1` [compound 17, 1′-((4-Bromophenyl)sulfonyl)-4-methyl-1,4′-bipiperidine], the melting point was in the range of 165 to 168 °C. Molecule `CCCOc1ccc(S(=O)(=O)N2CCC(N3CCC(C)CC3)CC2)cc1` [compound 18, 4-Methyl-1′-((4-propoxyphenyl)sulfonyl)-1,4′-bipiperidine] gave a melting point of 118 to 121 °C. Consider `CCCCOc1ccc(S(=O)(=O)N2CCC(N3CCC(C)CC3)CC2)cc1` [compound 19, 1′-((4-Butoxyphenyl)sulfonyl)-4-methyl-1,4′-bipiperidine], for which the melting point lay within 137 to 139 °C. `CC1CCN(C2CCN(S(=O)(=O)c3ccc(OCc4ccccc4)cc3)CC2)CC1` [compound 20, 1′-((4-(Benzyloxy)phenyl)sulfonyl)-4-methyl-1,4′-bipiperidine]: the melting point fell in the range of 157 to 159 °C. `CC1CCN(C2CCN(S(=O)(=O)c3ccc(OC(F)(F)F)cc3)CC2)CC1` [compound 21, 4-Methyl-1′-((4-(trifluoromethoxy)phenyl)sulfonyl)-1,4′-bipiperidine] came in with a melting point of 168 to 170 °C. With `COc1cccc(S(=O)(=O)N2CCC(N3CCC(C)CC3)CC2)c1` [compound 23, 1′-((3-Methoxyphenyl)sulfonyl)-4-methyl-1,4′-bipiperidine], the melting point lay in the range of 81 to 83 °C.

Molecule `Cc1cccc(S(=O)(=O)N2CCC(N3CCC(C)CC3)CC2)c1` [compound 26, 4-Methyl-1′-(m-tolylsulfonyl)-1,4′-bipiperidine] yielded a melting point of 90 to 93 °C. As for `CC1CCN(C2CCN(S(=O)(=O)c3cccc(C(F)(F)F)c3)CC2)CC1` [compound 27, 4-Methyl-1′-((3-(trifluoromethyl)phenyl)sulfonyl)-1,4′-bipiperidine], the figure is 123 to 125 °C.

On to `CC1CCN(C2CCN(S(=O)(=O)c3cccc(Cl)c3)CC2)CC1` [compound 28, 1′-((3-Chlorophenyl)sulfonyl)-4-methyl-1,4′-bipiperidine], for which the melting point fell in the range of 122 to 124 °C. As for `CC1CCN(C2CCN(S(=O)(=O)c3cccc(Br)c3)CC2)CC1` [compound 29, 1′-((3-Bromophenyl)sulfonyl)-4-methyl-1,4′-bipiperidine], the figure is 125 to 126 °C; as for `CC1CCN(C2CCN(S(=O)(=O)c3ccccc3Br)CC2)CC1` [compound 30, 1′-((2-Bromophenyl)sulfonyl)-4-methyl-1,4′-bipiperidine], 82 to 84 °C. For `COc1ccc(S(=O)(=O)N2CCC(N3CCC(C)CC3)CC2)cc1OC` [compound 31, 1′-((3,4-Dimethoxyphenyl)sulfonyl)-4-methyl-1,4′-bipiperidine], the melting point was in the range of 132 to 134 °C.

For `COc1ccc(OC)c(S(=O)(=O)N2CCC(N3CCC(C)CC3)CC2)c1` [compound 32, 1′-((2,5-Dimethoxyphenyl)sulfonyl)-4-methyl-1,4′-bipiperidine], the melting point is 75 to 78 °C.

As for `COc1ccc(Br)cc1S(=O)(=O)N1CCC(N2CCC(C)CC2)CC1` [compound 33, 1′-((5-Bromo-2-methoxyphenyl)sulfonyl)-4-methyl-1,4′-bipiperidine], the melting point fell in the range of 98 to 102 °C.

Consider `COc1cc(C)ccc1S(=O)(=O)N1CCC(N2CCC(C)CC2)CC1` [compound 34, 1′-((2-Methoxy-4-methylphenyl)sulfonyl)-4-methyl-1,4′-bipiperidine], for which the melting point lay in the range of 95 to 98 °C. The molecule `CC1CCN(C2CCN(S(=O)(=O)c3ccc([N+](=O)[O-])c(C(F)(F)F)c3)CC2)CC1` [compound 35, 4-Methyl-1′-((4-nitro-3-(trifluoromethyl)phenyl)sulfonyl)-1,4′-bipiperidine] showed a melting point of 175 to 178 °C. Turning to `Cc1ccc(C#N)c(S(=O)(=O)N2CCC(N3CCC(C)CC3)CC2)c1` [compound 36, 4-Methyl-2-((4-methyl-[1,4′-bipiperidin]-1′-yl)sulfonyl)benzonitrile], the melting point lay within 118 to 121 °C. As for `Cc1ccc(S(=O)(=O)N2CCC(N3CCC(C)CC3)CC2)cc1C` [compound 37, 1′-((3,4-Dimethylphenyl)sulfonyl)-4-methyl-1,4′-bipiperidine], the figure is 87 to 89 °C. As for `CCc1cc(Br)ccc1S(=O)(=O)N1CCC(N2CCC(C)CC2)CC1` [compound 38, 1′-((4-Bromo-2-ethylphenyl)sulfonyl)-4-methyl-1,4′-bipiperidine], the figure is 87 to 91 °C. Molecule `CC1CCN(C2CCN(S(=O)(=O)c3ccc(Cl)c(C(F)(F)F)c3)CC2)CC1` [compound 39, 1′-((4-Chloro-3-(trifluoromethyl)phenyl)sulfonyl)-4-methyl-1,4′-bipiperidine] had a melting point of 118 to 120 °C. As for `CC1CCN(C2CCN(S(=O)(=O)c3ccc(Cl)c(Cl)c3)CC2)CC1` [compound 40, 1′-((3,4-Dichlorophenyl)sulfonyl)-4-methyl-1,4′-bipiperidine], the figure is 160 to 162 °C.

`CC1CCN(C2CCN(S(=O)(=O)c3ccc(Cl)cc3Cl)CC2)CC1` [compound 41, 1′-((2,4-Dichlorophenyl)sulfonyl)-4-methyl-1,4′-bipiperidine] had a melting point of 75 to 78 °C. As for `CC1CCN(C2CCN(S(=O)(=O)c3cc(Cl)cc(Cl)c3)CC2)CC1` [compound 42, 1′-((3,5-Dichlorophenyl)sulfonyl)-4-methyl-1,4′-bipiperidine], the figure is 128 to 131 °C; as for `CC1CCN(C2CCN(S(=O)(=O)c3ccc(F)cc3F)CC2)CC1` [compound 44, 1′-((2,4-Difluorophenyl)sulfonyl)-4-methyl-1,4′-bipiperidine], 165 to 168 °C; as for `CC1CCN(C2CCN(S(=O)(=O)c3ccc(Br)cc3OC(F)(F)F)CC2)CC1` [compound 45, 1′-((4-Bromo-2-(trifluoromethoxy)phenyl)sulfonyl)-4-methyl-1,4′-bipiperidine], 108 to 110 °C. As for `Cc1cc(C)c(S(=O)(=O)N2CCC(N3CCC(C)CC3)CC2)c(C)c1` [compound 47, 1′-(Mesitylsulfonyl)-4-methyl-1,4′-bipiperidine], the figure is 62 to 65 °C; as for `Cc1cc(Cl)cc(Cl)c1S(=O)(=O)N1CCC(N2CCC(C)CC2)CC1` [compound 49, 1′-((2,4-Dichloro-6-methylphenyl)sulfonyl)-4-methyl-1,4′-bipiperidine], 89 to 91 °C; as for `CC1CCN(C2CCN(S(=O)(=O)c3cc(F)c(Br)c(F)c3)CC2)CC1` [compound 50, 1′-((4-Bromo-3,5-difluorophenyl)sulfonyl)-4-methyl-1,4′-bipiperidine], 161 to 163 °C. For `CC1CCN(C2CCN(S(=O)(=O)c3ccccc3-c3ccccc3)CC2)CC1` [compound 51, 1′-([1,1′-Biphenyl]-2-ylsulfonyl)-4-methyl-1,4′-bipiperidine], the melting point was in the range of 106 to 109 °C. Turning to `CC1CCN(C2CCN(S(=O)(=O)c3ccc(-c4ccccc4)cc3)CC2)CC1` [compound 56, 1′-([1,1′-Biphenyl]-4-ylsulfonyl)-4-methyl-1,4′-bipiperidine], the melting point is 178 to 181 °C. As for `CC1CCN(C2CCN(S(=O)(=O)c3ccc(-c4ccc(Cl)cc4)cc3)CC2)CC1` [compound 57, 1′-((4′-Cloro-[1,1′-biphenyl]-4-yl)sulfonyl)-4-methyl-1,4′-bipiperidine], the figure is 205 to 207 °C. As for `COc1ccc(-c2ccc(S(=O)(=O)N3CCC(N4CCC(C)CC4)CC3)cc2)cc1` [compound 58, 1′-((4′-Methoxy-[1,1′-biphenyl]-4-yl)sulfonyl)-4-methyl-1,4′-bipiperidine], the figure is 195 to 198 °C; as for `CC1CCN(C2CCN(S(=O)(=O)c3cccc(-c4ccc(Cl)cc4)c3)CC2)CC1` [compound 62, 1′-((4′-Chloro-[1,1′-biphenyl]-3-yl)sulfonyl)-4-methyl-1,4′-bipiperidine], 124 to 126 °C; as for `COc1ccc(-c2cccc(S(=O)(=O)N3CCC(N4CCC(C)CC4)CC3)c2)cc1` [compound 63, 1′-((4′-Methoxy-[1,1′-biphenyl]-3-yl)sulfonyl)-4-methyl-1,4′-bipiperidine], 107 to 109 °C.

Molecule `Cc1ccc(-c2cccc(S(=O)(=O)N3CCC(N4CCC(C)CC4)CC3)c2)cc1` [compound 64, 4-Methyl-1′-((4′-methyl-[1,1′-biphenyl]-3-yl)sulfonyl)-1,4′-bipiperidine] had a melting point of 103 to 105 °C.

(Values after patent US20220024891A1 (The Board of Regents of the University of Texas System, priority 2018, published 2022).)
